# Experimental data reported in PMC7206119, “RIP1 inhibition blocks inflammatory diseases but not tumor growth or metastases” (Cell Death and Differentiation, 2019).
# Columns and labels:
# Test in all cases: biochemical
# Parameters in all cases: DiscoverX kinase panel, active-site competition binding (KINOMEscan type), percent of control at one concentration
# Details in all cases: competition binding, percent of control
# AURKC = AURKC (Homo sapiens, UniProt Q9UQB9)
# ALK(C1156Y) = ALK(C1156Y) (Homo sapiens, UniProt Q9UM73, C1156Y)
# [1] = target: T1, RSK2(Kin.Dom.1-N-terminal) (Homo sapiens, UniProt P51812)
# T1 construct: gene RPS6KA3; Kin.Dom.1-N-terminal
# SGK3 = SGK3 (Homo sapiens, UniProt Q96BR1)
# IKK-beta = target: T2, IKK-beta (Homo sapiens, UniProt O14920)
# T2 construct: gene IKBKB
# [2] = target: T3, JAK1(JH1domain-catalytic) (Homo sapiens, UniProt P23458)
# T3 construct: JH1domain-catalytic
# TGFBR1 = TGFBR1 (Homo sapiens, UniProt P36897)
# MRCKB = target: T4, MRCKB (Homo sapiens, UniProt Q9Y5S2)
# T4 construct: gene CDC42BPB
# PRKCH = PRKCH (Homo sapiens, UniProt P24723)
# MARK1 = MARK1 (Homo sapiens, UniProt Q9P0L2)
# MTOR = MTOR (Homo sapiens, UniProt P42345)
# NEK5 = NEK5 (Homo sapiens, UniProt Q6P3R8)
# ERK4 = target: T5, ERK4 (Homo sapiens, UniProt P31152)
# T5 construct: gene MAPK4
# FGFR1 = FGFR1 (Homo sapiens, UniProt P11362)
# MYLK2 = MYLK2 (Homo sapiens, UniProt Q9H1R3)
# MAP4K3 = MAP4K3 (Homo sapiens, UniProt Q8IVH8)
# BLK = BLK (Homo sapiens, UniProt P51451)
# CSNK1G1 = CSNK1G1 (Homo sapiens, UniProt Q9HCP0)
# LOK = target: T6, LOK (Homo sapiens, UniProt O94804)
# T6 construct: gene STK10
# TEC = TEC (Homo sapiens, UniProt P42680)
# AMPK-alpha2 = target: T7, AMPK-alpha2 (Homo sapiens, UniProt P54646)
# T7 construct: gene PRKAA2
# T7 sequence (P54646 whole entry): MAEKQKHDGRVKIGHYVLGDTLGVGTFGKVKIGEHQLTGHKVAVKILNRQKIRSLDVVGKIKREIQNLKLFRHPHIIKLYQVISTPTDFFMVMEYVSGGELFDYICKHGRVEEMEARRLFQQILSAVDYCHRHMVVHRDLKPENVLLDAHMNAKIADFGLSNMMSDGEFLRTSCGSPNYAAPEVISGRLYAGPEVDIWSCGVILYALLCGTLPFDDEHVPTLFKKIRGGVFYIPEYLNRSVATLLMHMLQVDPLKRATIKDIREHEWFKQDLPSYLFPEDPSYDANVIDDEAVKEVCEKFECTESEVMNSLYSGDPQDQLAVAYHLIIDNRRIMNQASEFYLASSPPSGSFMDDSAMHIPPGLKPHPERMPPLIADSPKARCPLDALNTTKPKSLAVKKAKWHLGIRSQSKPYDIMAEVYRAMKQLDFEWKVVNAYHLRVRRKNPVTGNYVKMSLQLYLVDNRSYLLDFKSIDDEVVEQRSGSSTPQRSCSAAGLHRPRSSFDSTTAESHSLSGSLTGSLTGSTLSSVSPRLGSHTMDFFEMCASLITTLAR
# ALK(C1156Y), sequence (Q9UM73 whole entry C1156Y): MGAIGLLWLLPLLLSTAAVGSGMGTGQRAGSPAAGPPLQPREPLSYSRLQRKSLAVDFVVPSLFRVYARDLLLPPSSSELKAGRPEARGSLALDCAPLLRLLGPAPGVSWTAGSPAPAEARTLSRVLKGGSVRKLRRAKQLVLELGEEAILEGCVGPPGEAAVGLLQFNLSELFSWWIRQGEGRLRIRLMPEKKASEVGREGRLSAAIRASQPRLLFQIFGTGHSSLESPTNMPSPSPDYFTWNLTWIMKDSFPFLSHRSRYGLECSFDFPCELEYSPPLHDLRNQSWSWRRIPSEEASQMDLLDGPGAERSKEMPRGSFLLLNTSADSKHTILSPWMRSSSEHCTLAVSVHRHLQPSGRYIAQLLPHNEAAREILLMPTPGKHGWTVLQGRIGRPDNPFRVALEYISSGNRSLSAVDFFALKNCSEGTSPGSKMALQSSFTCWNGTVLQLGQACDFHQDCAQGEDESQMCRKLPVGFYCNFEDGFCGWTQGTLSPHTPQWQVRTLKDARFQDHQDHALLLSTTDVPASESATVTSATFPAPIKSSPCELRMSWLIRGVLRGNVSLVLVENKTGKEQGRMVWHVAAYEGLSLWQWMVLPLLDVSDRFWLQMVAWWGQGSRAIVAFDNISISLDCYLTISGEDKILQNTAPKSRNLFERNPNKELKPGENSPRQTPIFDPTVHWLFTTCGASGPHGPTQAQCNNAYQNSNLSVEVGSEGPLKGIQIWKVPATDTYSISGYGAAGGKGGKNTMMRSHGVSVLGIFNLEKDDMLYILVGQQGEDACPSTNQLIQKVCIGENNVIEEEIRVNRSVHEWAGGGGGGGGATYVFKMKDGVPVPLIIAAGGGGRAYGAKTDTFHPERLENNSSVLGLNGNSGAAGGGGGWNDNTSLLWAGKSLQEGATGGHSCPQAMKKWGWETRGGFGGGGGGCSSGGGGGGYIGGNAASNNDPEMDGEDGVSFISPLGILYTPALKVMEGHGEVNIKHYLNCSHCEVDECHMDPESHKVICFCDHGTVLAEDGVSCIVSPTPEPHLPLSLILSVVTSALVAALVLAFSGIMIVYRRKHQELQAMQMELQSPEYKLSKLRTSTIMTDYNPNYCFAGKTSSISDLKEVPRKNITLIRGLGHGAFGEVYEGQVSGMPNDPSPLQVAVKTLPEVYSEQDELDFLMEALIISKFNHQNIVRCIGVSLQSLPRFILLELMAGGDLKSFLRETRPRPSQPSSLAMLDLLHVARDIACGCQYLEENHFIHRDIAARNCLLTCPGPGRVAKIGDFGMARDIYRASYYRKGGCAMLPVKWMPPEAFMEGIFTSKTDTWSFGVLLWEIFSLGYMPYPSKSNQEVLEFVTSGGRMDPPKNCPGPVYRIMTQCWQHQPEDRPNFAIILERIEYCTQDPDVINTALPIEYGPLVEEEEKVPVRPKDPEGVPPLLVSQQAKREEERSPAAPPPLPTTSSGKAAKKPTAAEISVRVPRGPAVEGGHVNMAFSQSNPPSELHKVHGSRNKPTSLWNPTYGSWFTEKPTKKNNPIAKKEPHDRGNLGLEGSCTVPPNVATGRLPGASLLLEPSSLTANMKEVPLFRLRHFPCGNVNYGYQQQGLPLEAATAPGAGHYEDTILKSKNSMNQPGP
# AURKC, sequence (Q9UQB9 whole entry): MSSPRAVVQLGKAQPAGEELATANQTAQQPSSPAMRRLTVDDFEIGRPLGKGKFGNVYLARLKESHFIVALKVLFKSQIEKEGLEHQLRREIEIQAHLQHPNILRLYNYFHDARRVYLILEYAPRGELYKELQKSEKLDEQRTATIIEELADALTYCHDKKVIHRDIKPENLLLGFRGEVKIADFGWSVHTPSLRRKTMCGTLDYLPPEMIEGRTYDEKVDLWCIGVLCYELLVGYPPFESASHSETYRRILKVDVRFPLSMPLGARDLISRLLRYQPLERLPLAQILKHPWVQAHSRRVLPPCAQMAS
# MYLK2, sequence (Q9H1R3 whole entry): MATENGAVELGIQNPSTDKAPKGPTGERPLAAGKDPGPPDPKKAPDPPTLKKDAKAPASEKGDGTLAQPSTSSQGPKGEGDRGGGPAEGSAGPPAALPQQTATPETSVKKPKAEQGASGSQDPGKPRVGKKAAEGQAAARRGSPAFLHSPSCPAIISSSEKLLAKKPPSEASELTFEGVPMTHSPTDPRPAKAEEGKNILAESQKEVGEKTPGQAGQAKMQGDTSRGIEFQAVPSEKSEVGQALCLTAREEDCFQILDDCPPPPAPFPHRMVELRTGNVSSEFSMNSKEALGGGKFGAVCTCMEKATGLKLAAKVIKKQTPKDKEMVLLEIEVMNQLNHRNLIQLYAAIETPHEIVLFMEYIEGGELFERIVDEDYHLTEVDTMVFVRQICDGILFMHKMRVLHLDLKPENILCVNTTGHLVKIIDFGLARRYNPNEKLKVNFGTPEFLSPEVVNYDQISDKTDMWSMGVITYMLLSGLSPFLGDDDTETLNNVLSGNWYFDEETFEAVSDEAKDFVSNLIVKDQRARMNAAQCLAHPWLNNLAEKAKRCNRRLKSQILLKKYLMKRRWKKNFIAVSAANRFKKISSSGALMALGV
# TEC, sequence (P42680 whole entry): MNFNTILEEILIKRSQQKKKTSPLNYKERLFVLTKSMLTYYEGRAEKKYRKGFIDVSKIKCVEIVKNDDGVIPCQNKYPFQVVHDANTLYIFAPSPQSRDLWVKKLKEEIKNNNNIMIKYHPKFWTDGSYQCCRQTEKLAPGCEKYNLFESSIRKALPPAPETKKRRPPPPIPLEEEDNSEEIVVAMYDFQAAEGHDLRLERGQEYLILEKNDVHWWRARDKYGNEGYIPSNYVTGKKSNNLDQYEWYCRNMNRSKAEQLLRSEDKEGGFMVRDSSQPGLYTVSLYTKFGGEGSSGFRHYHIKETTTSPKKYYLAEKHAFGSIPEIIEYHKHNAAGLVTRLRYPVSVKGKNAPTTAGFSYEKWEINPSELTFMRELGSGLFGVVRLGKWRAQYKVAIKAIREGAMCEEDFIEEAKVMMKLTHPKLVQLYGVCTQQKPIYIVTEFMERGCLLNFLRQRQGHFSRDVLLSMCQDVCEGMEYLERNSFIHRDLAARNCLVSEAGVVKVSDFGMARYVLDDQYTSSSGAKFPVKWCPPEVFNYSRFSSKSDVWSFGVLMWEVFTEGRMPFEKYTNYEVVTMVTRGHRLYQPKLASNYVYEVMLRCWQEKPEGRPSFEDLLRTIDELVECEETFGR
# T1 sequence (P51812 whole entry): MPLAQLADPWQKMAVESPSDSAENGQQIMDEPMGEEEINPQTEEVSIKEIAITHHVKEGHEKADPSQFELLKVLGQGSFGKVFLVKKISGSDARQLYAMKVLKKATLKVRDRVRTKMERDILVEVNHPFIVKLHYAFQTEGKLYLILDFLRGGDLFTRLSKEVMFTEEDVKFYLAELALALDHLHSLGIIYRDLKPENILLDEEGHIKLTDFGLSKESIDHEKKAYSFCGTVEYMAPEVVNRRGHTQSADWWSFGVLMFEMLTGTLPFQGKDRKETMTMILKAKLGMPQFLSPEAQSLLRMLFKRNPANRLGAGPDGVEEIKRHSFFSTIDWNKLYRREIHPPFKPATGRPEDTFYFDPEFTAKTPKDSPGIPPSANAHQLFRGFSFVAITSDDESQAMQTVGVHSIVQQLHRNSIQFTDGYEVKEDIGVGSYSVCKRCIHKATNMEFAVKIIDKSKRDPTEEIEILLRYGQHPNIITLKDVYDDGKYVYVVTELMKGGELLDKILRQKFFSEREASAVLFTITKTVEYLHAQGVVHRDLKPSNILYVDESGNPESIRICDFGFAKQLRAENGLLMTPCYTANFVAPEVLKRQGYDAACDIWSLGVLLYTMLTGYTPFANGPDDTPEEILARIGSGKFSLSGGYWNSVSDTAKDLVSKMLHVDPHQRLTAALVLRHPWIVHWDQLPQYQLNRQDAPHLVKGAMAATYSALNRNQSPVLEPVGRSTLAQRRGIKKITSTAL
# T5 sequence (P31152 whole entry): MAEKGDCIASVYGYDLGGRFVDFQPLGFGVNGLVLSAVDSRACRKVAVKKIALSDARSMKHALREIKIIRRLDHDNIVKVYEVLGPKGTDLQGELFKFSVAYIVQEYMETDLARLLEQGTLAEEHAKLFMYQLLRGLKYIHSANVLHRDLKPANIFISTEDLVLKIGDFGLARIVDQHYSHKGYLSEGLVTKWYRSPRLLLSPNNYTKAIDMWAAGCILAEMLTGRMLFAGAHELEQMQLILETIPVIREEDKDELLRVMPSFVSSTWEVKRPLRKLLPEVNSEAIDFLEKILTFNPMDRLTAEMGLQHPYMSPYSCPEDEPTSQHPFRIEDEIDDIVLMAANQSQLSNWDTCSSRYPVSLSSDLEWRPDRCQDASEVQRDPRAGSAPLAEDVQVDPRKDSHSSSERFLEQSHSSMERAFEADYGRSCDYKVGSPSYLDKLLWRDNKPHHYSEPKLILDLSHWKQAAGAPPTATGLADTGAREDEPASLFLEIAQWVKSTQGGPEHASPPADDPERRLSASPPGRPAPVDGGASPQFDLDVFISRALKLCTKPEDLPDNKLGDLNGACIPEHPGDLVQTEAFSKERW
smiles,measurement,setting,value
"COc1cc2c(cn1)N(C)C(=O)[C@@H](NC(=O)c1nc3n(n1)[C@H](c1ccccc1)CC3)CC2 [GNE684, (S)-N-((S)-7-methoxy-1-methyl-2-oxo-2,3,4,5-tetrahydro-1H-pyrido[3,4-b]azepin-3-yl)-5-phenyl-6,7-dihydro-5H-pyrrolo[1,2-b][1,2,4]triazole-2-carboxamide]",remaining binding at 10 µM,AURKC,93%
same,remaining binding at 10 µM,ALK(C1156Y),96%
same,remaining binding at 10 µM,[1],65%
same,remaining binding at 10 µM,SGK3,93%
same,remaining binding at 10 µM,IKK-beta,100%
same,remaining binding at 10 µM,[2],100%
same,remaining binding at 10 µM,TGFBR1,97%
same,remaining binding at 10 µM,MRCKB,100%
same,remaining binding at 10 µM,PRKCH,89%
same,remaining binding at 10 µM,MARK1,69%
same,remaining binding at 10 µM,MTOR,100%
same,remaining binding at 10 µM,NEK5,100%
same,remaining binding at 10 µM,ERK4,96%
same,remaining binding at 10 µM,FGFR1,92%
same,remaining binding at 10 µM,MYLK2,83%
same,remaining binding at 10 µM,MAP4K3,99%
same,remaining binding at 10 µM,BLK,49%
same,remaining binding at 10 µM,CSNK1G1,91%
same,remaining binding at 10 µM,LOK,82%
same,remaining binding at 10 µM,TEC,100%
same,remaining binding at 10 µM,AMPK-alpha2,81%
